Reference: publication PMC9888480, “Carboranyl-1,8-naphthalimide intercalators induce lysosomal membrane permeabilization and ferroptosis in cancer cell lines” (Journal of Enzyme Inhibition and Medicinal Chemistry, 2023)
Entries after “also recorded” stand apart in the source; their conditions may differ.

Columns and labels:
ct-DNA [1] = assay: Melting temperature (Tm) measurements of ct-DNA; type: binding, calf; details: r = [compound]/[ct-DNA] = 0.3, cacodylate buffer pH 7.0; Tm of free ct-DNA 74 °C; error ±0.5 °C
Method: The measurements were carried out by adding aliquots of DMSO stock solution of the tested compounds to the buffer solution (pH 7.0, 20 mM, cacodylate buffer, DMSO content of the final solution = 0.33–0.39%). Tm curves were collected at r = 0.3 (r = [compound]/[ct-DNA]) to assure the dominant binding mode. Thermal melting curves were plotted considering the absorption change at 260 nm as a function of temperature using a GBC Cintra10 UV–VIS spectrometer (Dandenong, Australia) equipped with a GBC Thermocell Peltier Power Supply (Dandenong, Australia) with the use of a 1-cm-path-length cell. The absorbance of the samples was monitored at 260 nm from 35 to 95 °C with a heating rate of 1 °C/min. Tm values are the midpoints or the transition curves determined from the maximum of the first derivative. ΔTm values were calculated by subtracting the Tm of the free nucleic acid from the Tm of the sample. All ΔTm values reported in the study were measured in triplicate. The error in ΔTm was ±0.5 °C.

ct-DNA [2] = assay: UV–vis spectra titration with ct-DNA (binding constant Kb); parameters: species or system calf; details: for bathochromic effect: UV–vis, addition of 1.25–15 µM ct-DNA to 10 µM compound; for Kb compared to that of mitonafide: mitonafide Kb 2.54 × 10^5
Method: The measurements were performed by adding aliquots of DMSO stock solution of the tested compounds to the buffer solution (pH 7.4, 20 mM, 50 mM NaCl, Tris–HCl buffer, DMSO content of the final solutions = 0.54–0.65%) to the final concentration 10 µM. The tested compounds were incubated for 5 min, with increasing concentrations ranging from 0 to 15 µM of ct-DNA at 37 °C. Then, the UV–vis absorption spectra between 300 and 500 nm were recorded using a GBC Cintra10 UV–VIS spectrometer equipped with a GBC Thermocell Peltier Power Supply with the use of a 1-cm-path-length cell. The binding constant was calculated according to the following equation[70]: A0/A−A0= εG/εH−G−εG+ εG/εH−G−εG × 1/Kb[DNA] where Kb is the binding constant; A0 and a are absorbances of the free tested compound and the apparent one; εG and εH–G are their coefficient, respectively; [DNA] is the concentration of DNA in base pairs. The slope to intercept ratio of the plot between A0/A − A0 and 1/[DNA] yielded the binding constant.

ct-DNA [3] = assay: Circular dichroism (CD) measurements of ct-DNA; type: binding, calf; details: increasing concentration of conjugate, r = 0.1–0.5, cacodylate buffer pH 7.0
Method: The measurements were performed by adding aliquots of DMSO stock solution of the tested compounds to the buffer solution (pH 7.0, 20 mM, cacodylate buffer, DMSO content of the final solutions = 0.22–1.30%). Changes in the CD spectrum of ct-DNA upon the addition of compound were measured at different molar ratios r = [compound]/[ct-DNA]. CD spectra were recorded on a JASCO J-815 CD spectrometer with a JASCO PFD-425S Peltier thermostated cell holder (JASCO, Tokyo, Japan) by using a square quartz cuvette of path length 0.5 cm (0.5 ml) in the 230–400 nm region. The CD profiles reported were an average of three successive scans with a scan time of 200 nm per minute and an appropriately corrected baseline. Temperature was maintained at 20 °C during the experiment.

HepG2 cells = assay: Real-time cell migration assay (xCELLigence); type: cell-based, human; details: one-fourth and half of IC50, 24 h pre-treatment
Method: Transwell cell migration experiments were performed using an xCELLigence RTCA Analyser (Roche, Switzerland) in CIM plates (ACEA Biosciences, San Diego, CA, USA). Each well consisted of an upper and a lower chamber separated by a microporous polyethylene terephthalate membrane containing randomly distributed 8-µm pores. Prior to the migration assay, the HepG2 cells (2 × 10^4) were seeded onto 48-well plates containing the growth medium (EMEM) and incubated until 70–80% confluency at 37 °C in a humidified atmosphere containing 5% CO2. […] Then, 160 µl of complete growth medium (supplemented with 10% FBS) was added to the lower chamber, and 50 µl of serum-free growth medium was added to the upper chambers of the CIM plate. The plates were incubated at 37 °C under 5% CO2 saturation for 1 h prior to insertion into the xCELLigence platform. To initiate a transwell migration experiment, the cells were detached with trypsin (Corning®), resuspended in the serum-free growth medium, and seeded in the upper chamber at a density of 1 × 10^4 cells in 100 µl per well that was previously treated with the compounds. The impedance of the microelectrode array was monitored and converted to CI. Normalisation values were recorded using the RTCA Software 1.2.1. Readouts were performed every 30 min for 72 h.

Substance | ΔTm ct-DNA (ct-DNA [1]) [°C] | bathochromic effect (ct-DNA [2]) [nm] | change in the CD spectra of ct-DNA (ct-DNA [3]) | effect on migration of HepG2 cells (slope of cell index, first 24 h) (HepG2 cells) | Kb compared to that of mitonafide (ct-DNA [2])
4-[(6-[(1,7-Dicarba-closo-dodecaborane-1-yl)ethylamino]hexyl)amino]-3-nitro-N-[2-(N-pyrrolidinyl)ethyl]-1,8-naphthalimide [Compound 37] | 13.00 | 8 | remarkably disturbed | highest influence on the migration activity | 
4-[(6-[(1,2-Dicarba-closo-dodecaborane-1-yl)ethylamino]hexyl)amino]-N-[2-(dimethylamino)ethyl]-3-nitro-1,8-naphthalimide [Compound 34] | 11.67 | 9 | remarkably disturbed | highest influence on the migration activity | 
4-[(6-[(1,2-Dicarba-closo-dodecaborane-1-yl)ethylamino]hexyl)amino]-3-nitro-N-[2-(N-pyrrolidinyl)ethyl]-1,8-naphthalimide [Compound 36] | 10.00 | 7 | disturbed |  | similar
4-[(6-[(1,7-Dicarba-closo-dodecaborane-1-yl)ethylamino]hexyl)amino]-N-[2-(dimethylamino)ethyl]-3-nitro-1,8-naphthalimide [Compound 35] | 13.00 | 10 | remarkably disturbed | highest influence on the migration activity; also recorded: highest impairment | approximately 1.5 fold
